≈ marks a conversion by molar mass, not a printed value.
Experiments:
Enterococcus faecium [1] = assay: Antibacterial activity agianst vancomycin-resistant Enterococcus faecium; assay type: functional
Enterococcus faecalis [2] = assay: Antibacterial activity agianst linezolid-resistant Enterococcus faecalis; assay type: functional
Staphylococcus aureus [3] = assay: Antibacterial activity agianst methicillin-resistant Staphylococcus aureus; assay type: functional
Staphylococcus aureus [4] = assay: Antibacterial activity agianst methicillin-sensitive Staphylococcus aureus; assay type: functional
Staphylococcus aureus [5] = assay: Antibacterial activity agianst Staphylococcus aureus ATCC 29213; assay type: functional
[6] = target: T1, MAO-A (amine oxidase [flavin-containing] A) (Homo sapiens, UniProt P21397); assay: Inhibition of human MAO-A at 30 uM relative to control
T1 sequence (P21397 whole entry): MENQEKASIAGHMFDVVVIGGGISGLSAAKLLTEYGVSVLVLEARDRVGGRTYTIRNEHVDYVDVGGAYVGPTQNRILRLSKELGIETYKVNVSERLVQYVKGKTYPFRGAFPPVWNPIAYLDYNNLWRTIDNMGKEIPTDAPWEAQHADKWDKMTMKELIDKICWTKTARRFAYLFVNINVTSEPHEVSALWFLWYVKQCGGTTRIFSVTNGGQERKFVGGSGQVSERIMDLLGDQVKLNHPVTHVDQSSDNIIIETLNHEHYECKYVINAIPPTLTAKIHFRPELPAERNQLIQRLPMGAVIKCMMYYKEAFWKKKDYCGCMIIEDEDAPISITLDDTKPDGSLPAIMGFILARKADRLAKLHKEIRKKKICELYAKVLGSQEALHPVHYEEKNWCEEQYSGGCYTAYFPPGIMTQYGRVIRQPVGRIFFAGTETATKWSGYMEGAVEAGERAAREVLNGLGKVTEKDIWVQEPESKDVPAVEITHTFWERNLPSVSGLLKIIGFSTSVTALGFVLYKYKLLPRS

Enterococcus faecium [7] = assay: Antibacterial activity agianst vancomycin-resistant Enterococcus faecium clinical isolates; assay type: functional
Enterococcus faecalis [8] = assay: Antibacterial activity agianst linezolid-resistant Enterococcus faecalis clinical isolates; assay type: functional
Staphylococcus aureus [9] = assay: Antibacterial activity agianst methicillin-sensitive Staphylococcus aureus clinical isolates; assay type: functional
[10] = Intrinsic clearance in human liver microsomes; assay type: ADME, Microsome; conditions: read-out: CLH
[11] = Metabolic stability in human liver microsomes assessed as parent compound remaining after 45 mins in presence of NADPH relative to control; assay type: ADME, Microsome; conditions: read-out: Stability
HepG2 = assay: Cytotoxicity against human HepG2 cells assessed as reduction in cell viability; assay type: cell-based
[12] = Half life in human liver microsomes; assay type: ADME, Microsome
Enterococcus faecalis [13] = assay: Potency index, ratio of linezolid MIC to compound MIC for antibacterial activity against linezolid-resistant Enterococcus faecalis clinical isolates; assay type: functional
Enterococcus faecalis [14] = assay: Potency index, ratio of linezolid MIC to compound MIC for antibacterial activity against linezolid-resistant Enterococcus faecalis; assay type: functional
Staphylococcus aureus [15] = assay: Antibacterial activity agianst methicillin-resistant Staphylococcus aureus clinical isolates; assay type: functional

## CC(=O)NC[C@H]1CN(c2ccc(N3CCC(Nc4cccc(OC(F)(F)F)c4)CC3)c(F)c2)C(=O)O1
Enterococcus faecium [1]
  MIC: 2 µg/mL (≈ 3.92 µM)
Enterococcus faecalis [2]
  MIC: 2 µg/mL (≈ 3.92 µM)
Staphylococcus aureus [3]
  MIC: 2 µg/mL (≈ 3.92 µM)
Staphylococcus aureus [4]
  MIC: 2 µg/mL (≈ 3.92 µM)
Staphylococcus aureus [5]
  MIC: 2 µg/mL (≈ 3.92 µM)

## CC(=O)NC[C@H]1CN(c2ccc(N3CCC(Nc4ccccc4OC(F)(F)F)CC3)c(F)c2)C(=O)O1
Enterococcus faecium [1]
  MIC: 2 µg/mL (≈ 3.92 µM)
Enterococcus faecalis [2]
  MIC: 1 µg/mL (≈ 1.96 µM)
Staphylococcus aureus [3]
  MIC: 2 µg/mL (≈ 3.92 µM)
Staphylococcus aureus [4]
  MIC: 2 µg/mL (≈ 3.92 µM)
Staphylococcus aureus [5]
  MIC: 2 µg/mL (≈ 3.92 µM)

## CC(=O)NC[C@H]1CN(c2ccc(N3CCC(Nc4ccc(Br)cc4F)CC3)c(F)c2)C(=O)O1
Enterococcus faecium [1]
  MIC: 2 µg/mL (≈ 3.82 µM)
Enterococcus faecalis [2]
  MIC: 1 µg/mL (≈ 1.91 µM)
Staphylococcus aureus [3]
  MIC: 2 µg/mL (≈ 3.82 µM)
Staphylococcus aureus [4]
  MIC: 2 µg/mL (≈ 3.82 µM)
Staphylococcus aureus [5]
  MIC: 2 µg/mL (≈ 3.82 µM)

## CC(=O)NC[C@H]1CN(c2ccc(N3CCC(Nc4ccc(Cl)cc4)CC3)c(F)c2)C(=O)O1
Enterococcus faecium [1]
  MIC: 2 µg/mL (≈ 4.34 µM)
Enterococcus faecalis [2]
  MIC: 2 µg/mL (≈ 4.34 µM)
Staphylococcus aureus [3]
  MIC: 2 µg/mL (≈ 4.34 µM)
Staphylococcus aureus [4]
  MIC: 2 µg/mL (≈ 4.34 µM)
Staphylococcus aureus [5]
  MIC: 2 µg/mL (≈ 4.34 µM)

## CC(=O)NC[C@H]1CN(c2ccc(N3CCC(Nc4ccc(OC(F)(F)F)cc4)CC3)c(F)c2)C(=O)O1
Enterococcus faecium [1]
  MIC: 0.5 µg/mL (≈ 0.979 µM)
Enterococcus faecalis [2]
  MIC: 0.5 µg/mL (≈ 0.979 µM)
Staphylococcus aureus [3]
  MIC: 1 µg/mL (≈ 1.96 µM)
Staphylococcus aureus [4]
  MIC: 1 µg/mL (≈ 1.96 µM)
Staphylococcus aureus [5]
  MIC: 1 µg/mL (≈ 1.96 µM)

## CC(=O)NC[C@H]1CN(c2ccc(N3CCC(Nc4ccc(C(C)C)cc4)CC3)c(F)c2)C(=O)O1
Enterococcus faecium [1]
  MIC: 0.5 µg/mL (≈ 1.07 µM)
Enterococcus faecalis [2]
  MIC: 0.5 µg/mL (≈ 1.07 µM)
Staphylococcus aureus [3]
  MIC: 1 µg/mL (≈ 2.13 µM)
Staphylococcus aureus [4]
  MIC: 2 µg/mL (≈ 4.27 µM)
Staphylococcus aureus [5]
  MIC: 2 µg/mL (≈ 4.27 µM)

## CC(=O)NC[C@H]1CN(c2ccc(N3CCN(/N=C/c4ccc([N+](=O)[O-])o4)CC3)c(F)c2)C(=O)O1
Enterococcus faecium [1]
  MIC: 1 µg/mL (≈ 2.11 µM)
Staphylococcus aureus [3]
  MIC: 1 µg/mL (≈ 2.11 µM)
Staphylococcus aureus [5]
  MIC: 0.5 µg/mL (≈ 1.05 µM)

## CC(=O)NC[C@H]1CN(c2ccc(N3CCC(Nc4ccccc4Br)CC3)c(F)c2)C(=O)O1
Enterococcus faecium [1]
  MIC: 2 µg/mL (≈ 3.96 µM)
Enterococcus faecalis [2]
  MIC: 2 µg/mL (≈ 3.96 µM)
Staphylococcus aureus [3]
  MIC: 2 µg/mL (≈ 3.96 µM)
Staphylococcus aureus [4]
  MIC: 2 µg/mL (≈ 3.96 µM)
Staphylococcus aureus [5]
  MIC: 2 µg/mL (≈ 3.96 µM)

## CC(=O)NC[C@H]1CN(c2ccc(N3CCC(Nc4cccc(Br)c4)CC3)c(F)c2)C(=O)O1
Enterococcus faecium [1]
  MIC: 2 µg/mL (≈ 3.96 µM)
Enterococcus faecalis [2]
  MIC: 2 µg/mL (≈ 3.96 µM)
Staphylococcus aureus [3]
  MIC: 2 µg/mL (≈ 3.96 µM)
Staphylococcus aureus [4]
  MIC: 2 µg/mL (≈ 3.96 µM)
Staphylococcus aureus [5]
  MIC: 2 µg/mL (≈ 3.96 µM)

## CC(=O)NC[C@H]1CN(c2ccc(N3CCC(N(C)c4ccc(Br)cc4)CC3)c(F)c2)C(=O)O1
Enterococcus faecium [1]
  MIC: 1 µg/mL (≈ 1.93 µM)
Enterococcus faecalis [2]
  MIC: 1 µg/mL (≈ 1.93 µM)
Staphylococcus aureus [3]
  MIC: 2 µg/mL (≈ 3.85 µM)
Staphylococcus aureus [4]
  MIC: 2 µg/mL (≈ 3.85 µM)
Staphylococcus aureus [5]
  MIC: 2 µg/mL (≈ 3.85 µM)

## CC(=O)NC[C@H]1CN(c2ccc(N3CCC(Nc4ccccc4)CC3)c(F)c2)C(=O)O1
[6]
  inhibition at 30 µM: 85%
Enterococcus faecium [7]
  MIC: 0.25 to 0.5 µg/mL (≈ 0.586 to 1.17 µM)
Enterococcus faecalis [8]
  MIC: 0.125 to 0.25 µg/mL (≈ 0.293 to 0.586 µM)
Staphylococcus aureus [9]
  MIC: 0.5 to 1 µg/mL (≈ 1.17 to 2.34 µM)
Enterococcus faecium [1]
  MIC: 1 µg/mL (≈ 2.34 µM)
Enterococcus faecalis [2]
  MIC: 0.5 µg/mL (≈ 1.17 µM)
Staphylococcus aureus [3]
  MIC: 1 µg/mL (≈ 2.34 µM)
Staphylococcus aureus [4]
  MIC: 1 µg/mL (≈ 2.34 µM)
Staphylococcus aureus [5]
  MIC: 1 µg/mL (≈ 2.34 µM)

## CC(=O)NC[C@H]1CN(c2ccc(N3CCC(NCc4ccccc4)CC3)c(F)c2)C(=O)O1
Enterococcus faecium [1]
  MIC: 2 µg/mL (≈ 4.54 µM)
Enterococcus faecalis [2]
  MIC: 2 µg/mL (≈ 4.54 µM)
Staphylococcus aureus [3]
  MIC: 1 µg/mL (≈ 2.27 µM)
Staphylococcus aureus [4]
  MIC: 1 µg/mL (≈ 2.27 µM)
Staphylococcus aureus [5]
  MIC: 2 µg/mL (≈ 4.54 µM)

## CC(=O)NC[C@H]1CN(c2ccc(N3CCC(NCc4ccc(F)cc4)CC3)c(F)c2)C(=O)O1
Enterococcus faecium [1]
  MIC: 2 µg/mL (≈ 4.36 µM)
Enterococcus faecalis [2]
  MIC: 2 µg/mL (≈ 4.36 µM)
Staphylococcus aureus [3]
  MIC: 1 µg/mL (≈ 2.18 µM)
Staphylococcus aureus [4]
  MIC: 1 µg/mL (≈ 2.18 µM)
Staphylococcus aureus [5]
  MIC: 1 µg/mL (≈ 2.18 µM)

## CC(=O)NC[C@H]1CN(c2ccc(N3CCC(Nc4ccc(F)cc4)CC3)c(F)c2)C(=O)O1
Enterococcus faecium [1]
  MIC: 1 µg/mL (≈ 2.25 µM)
Enterococcus faecalis [2]
  MIC: 1 µg/mL (≈ 2.25 µM)
Staphylococcus aureus [3]
  MIC: 0.5 µg/mL (≈ 1.12 µM)
Staphylococcus aureus [4]
  MIC: 1 µg/mL (≈ 2.25 µM)
Staphylococcus aureus [5]
  MIC: 1 µg/mL (≈ 2.25 µM)

## CC(=O)NC[C@H]1CN(c2ccc(N3CCC(Nc4ccc(Br)cc4)CC3)c(F)c2)C(=O)O1
[10]
  CLint scaled: 3.46 mL/min/kg
[11]
  remaining at 0.75 h: 97%
HepG2
  IC50: > 64 µM
[12]
  half-life: 8.37 h
[6]
  inhibition at 30 µM: 70%
Enterococcus faecalis [13]
  Ratio: 64
Enterococcus faecium [7]
  MIC: 0.125 to 0.25 µg/mL (≈ 0.247 to 0.495 µM)
Enterococcus faecalis [8]
  MIC: 0.0625 to 0.25 µg/mL (≈ 0.124 to 0.495 µM)
Staphylococcus aureus [9]
  MIC: 0.5 to 1 µg/mL (≈ 0.989 to 1.98 µM)
Enterococcus faecium [1]
  MIC: 0.25 µg/mL (≈ 0.495 µM)
Enterococcus faecalis [2]
  MIC: 0.25 µg/mL (≈ 0.495 µM)
Staphylococcus aureus [3]
  MIC: 0.5 µg/mL (≈ 0.989 µM)
Staphylococcus aureus [4]
  MIC: 1 µg/mL (≈ 1.98 µM)
Staphylococcus aureus [5]
  MIC: 1 µg/mL (≈ 1.98 µM)
Enterococcus faecalis [14]
  Ratio: 64

## CC(=O)NC[C@H]1CN(c2ccc(N3CCOCC3)c(F)c2)C(=O)O1 [LINEZOLID]
[11]
  remaining at 0.75 h: 18%
HepG2
  IC50: > 64 µM
[6]
  inhibition at 30 µM: 75%
Enterococcus faecium [7]
  MIC: 1 to 4 µg/mL (≈ 2.96 to 11.9 µM)
Enterococcus faecalis [8]
  MIC: > 16 µg/mL
Staphylococcus aureus [9]
  MIC: 1 to 2 µg/mL (≈ 2.96 to 5.93 µM)
Enterococcus faecium [1]
  MIC: 2 µg/mL (≈ 5.93 µM)
Staphylococcus aureus [15]
  MIC: 1 to 4 µg/mL (≈ 2.96 to 11.9 µM)
Enterococcus faecalis [2]
  MIC: > 16 µg/mL
Staphylococcus aureus [3]
  MIC: 1 µg/mL (≈ 2.96 µM)
Staphylococcus aureus [4]
  MIC: 1 µg/mL (≈ 2.96 µM)
Staphylococcus aureus [5]
  MIC: 1 µg/mL (≈ 2.96 µM)

## CC(=O)NC[C@H]1CN(c2ccc(N3CCN(Cc4ccc([N+](=O)[O-])o4)CC3)c(F)c2)C(=O)O1 [RANBEZOLID]
Enterococcus faecium [1]
  MIC: 0.5 µg/mL (≈ 1.08 µM)
Enterococcus faecalis [2]
  MIC: 0.5 µg/mL (≈ 1.08 µM)
Staphylococcus aureus [3]
  MIC: 0.5 µg/mL (≈ 1.08 µM)
Staphylococcus aureus [4]
  MIC: 0.5 µg/mL (≈ 1.08 µM)
Staphylococcus aureus [5]
  MIC: 0.5 µg/mL (≈ 1.08 µM)
